The source of these data is patent US5932189A, “Cyclic peptide somatostatin analogs” (Diatech, Inc., priority 1994, dated 1999).

Square brackets hold non-standard residues; d marks the D form. Peptide text beside a SMILES is read from it. * marks the point of attachment. X4 = NCCCC[C@H](NC(=O)[C@H](CS)NC(=O)CNC(=O)[C@@H](N)CCCCNC(=O)C*)C(N)=O; X8 = NC(=O)[C@H](CCC(=O)O)NC(=O)[C@H](CS)NC(=O)CNC(=O)[C@H](CS)NC(=O)C*; X2 = N=C(N)NCCC[C@H](NC(=O)[C@H](CS)NC(=O)CNC(=O)CNC(=O)C*)C(N)=O; X1 = NCCCC[C@H](NC(=O)[C@H](CS)NC(=O)CNC(=O)CNC(=O)C*)C(N)=O; NMeF = CN[C@@H](Cc1ccccc1)C(=O)O; hCys = N[C@@H](CCS)C(=O)O

For the test, the target named is T1, somatostatin receptors (Rattus norvegicus, UniProt P30680).
T1 construct: endogenous in cells; host or cells: AR42J rat pancreatic tumor cell line (membrane preparation)
T1 sequence (P30680 whole entry): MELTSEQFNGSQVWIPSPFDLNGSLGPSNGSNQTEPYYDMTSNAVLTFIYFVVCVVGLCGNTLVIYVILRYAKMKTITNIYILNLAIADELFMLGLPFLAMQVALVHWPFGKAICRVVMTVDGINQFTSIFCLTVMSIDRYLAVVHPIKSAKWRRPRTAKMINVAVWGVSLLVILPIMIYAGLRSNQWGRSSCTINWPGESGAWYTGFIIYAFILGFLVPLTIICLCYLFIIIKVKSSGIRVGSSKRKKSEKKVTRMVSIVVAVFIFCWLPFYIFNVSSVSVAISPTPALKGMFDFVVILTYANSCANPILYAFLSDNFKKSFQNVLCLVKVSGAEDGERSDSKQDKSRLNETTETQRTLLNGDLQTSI
Nature of the test: Inhibition of binding of (125I-Tyr11)somatostatin-14 to AR42J rat pancreatic tumor cell membranes. Conditions: 0.5 nM (125I-Tyr11)somatostatin-14, 25 min at 30° C., Hill plots. The procedure: Inhibition of Binding of (^125 I-Tyr^11)somatostatin-14 to AR42J Rat Pancreatic Tumor Cell Membranes
The rat pancreatic tumor cell line AR42J which expresses the somatostatin receptor was cultured in Dulbecco's minimal essential media (DMEM) supplemented with 10% fetal bovine serum (FBS) and 8 mM glutamine in a humidified 5% CO2 atmosphere at 37° C. in T-flasks. Harvested cells were homogenized in cold 50 mM Tris-HCl buffer (pH 7.4) and the homogenate then centrifuged at 39,000 g for 10 min at 4° C. Pellets were washed once with buffer and then resuspended in an ice-cold solution of 10 mM Tris-HCl (pH 7.4). Equal aliquots of this cell membrane preparation were incubated with (^125 I-Tyr^11)somatostatin-14 (at a final concentration of 0.5 nM and 750,000 cpm/mL, at a specific activity of 2000 Ci/mmol, Amersham, Arlington Heights, Ill.) and peptide at a final concentration of from 10^-11 M to 10^-6 M in a solution of 50 mM HEPES (pH 7.4) containing 1% bovine serum albumin (BSA), 5 mM MgCl2, Trasylol (200,000 International Units), bacitracin (0.02 mg/mL) and phenylmethylsulfonylfluoride (0.02 mg/mL) for 25 min at 30° C. Using a filtration manifold, this mixture was filtered through a polyethyleneimine-washed GC/F filter (Whatman, Maidstone, England), and the residue remaining on the filter washed thrice with 5 mL cold HEPES buffer. The filter and a sample of the filter washings were then counted in a gamma counter. To assess non-specific binding, the assay was performed in the presence of unlabeled somatostatin-14 at 200 nM. Data analysis including Hill plots of the data provided inhibition constants (see Bylund & Yamamura, "Methods of receptor binding", in Methods in Neurotransmitter Receptor Analysis, Yamamura et al., eds., Raven Press: New York, 1990).
As for `C[C@@H](O)[C@@H]1NC(=O)[C@H](CCCCN)NC(=O)[C@@H](Cc2c[nH]c3ccccc23)NC(=O)[C@H](Cc2ccc(O)cc2)NC(=O)[C@H](Cc2ccccc2)N(C)C(=O)[C@H](CCS)NC1=O` [cyclo.(N--CH3)F.YWD KT.Hcy] (cyclo(KT[hCys][NMeF]Y[dW])), affinity was put at a Ki of 0.26 nM.

The molecule `CC(C)[C@@H]1NC(=O)[C@H](CCCCN)NC(=O)[C@@H](Cc2c[nH]c3ccccc23)NC(=O)[C@H](Cc2ccc(O)cc2)NC(=O)[C@H](Cc2ccccc2)N(C)C(=O)[C@H](CCSCC(=O)NCCCC[C@H](N)C(=O)NCC(=O)N[C@@H](CS)C(=O)N[C@@H](CCCCN)C(N)=O)NC1=O` [cyclo.(N--CH3)F.YWD KV.Hcy(CH2 CO.(ε-K)GCK.amide)] (cyclo([NMeF]Y[dW]KV[hCys](X4))) came in with an inhibition constant Ki of 4.2 nM.

As for `CC(C)[C@@H]1NC(=O)[C@H](CCCCN)NC(=O)[C@@H](Cc2c[nH]c3ccccc23)NC(=O)[C@H](Cc2ccc(O)cc2)NC(=O)[C@H](Cc2ccccc2)N(C)C(=O)[C@H](CCSCC(=O)N[C@@H](CS)C(=O)NCC(=O)N[C@@H](CS)C(=O)N[C@@H](CCC(=O)O)C(N)=O)NC1=O` [cyclo.(N--CH3)F.YWD KV.Hcy(CH2 CO.CGCE.amide)] (cyclo(KV[hCys](X8)[NMeF]Y[dW])), the Ki worked out at 8.5 nM.

As to `CC(C)[C@@H]1NC(=O)[C@H](CCCCN)NC(=O)[C@@H](Cc2c[nH]c3ccccc23)NC(=O)[C@H](Cc2ccc(O)cc2)NC(=O)[C@H](Cc2ccccc2)N(C)C(=O)[C@H](CCSCC(=O)NCC(=O)NCC(=O)N[C@@H](CS)C(=O)N[C@@H](CCCCN)C(N)=O)NC1=O` [cyclo.(N--CH3)F.YWD KV.Hcy(CH2 CO.GGCK.amide)] (cyclo([NMeF]Y[dW]KV[hCys](X1))), affinity was put at a Ki of 2.5 nM.

Molecule `CC(C)[C@@H]1NC(=O)[C@H](CCCCN)NC(=O)[C@@H](Cc2c[nH]c3ccccc23)NC(=O)[C@H](Cc2ccc(O)cc2)NC(=O)[C@H](Cc2ccccc2)N(C)C(=O)[C@H](CCSCC(=O)NCC(=O)NCC(=O)N[C@@H](CS)C(=O)N[C@@H](CCCNC(=N)N)C(N)=O)NC1=O` [cyclo.(N--CH3)F.YWD KV.Hcy(CH2 CO.GGCR.amide)] (cyclo([NMeF]Y[dW]KV[hCys](X2))) registered a Ki of 0.29 nM.

With `CC(C)[C@@H]1NC(=O)[C@H](CCCCN)NC(=O)[C@@H](Cc2c[nH]c3ccccc23)NC(=O)[C@H](Cc2ccc(O)cc2)NC(=O)[C@H](Cc2ccccc2)N(C)C(=O)[C@H](CCS)NC1=O` [cyclo.(N--CH3)F.YWD KV.Hcy] (cyclo(KV[hCys][NMeF]Y[dW])), the Ki was less than 0.01 nM.

The Ki is a measure of affinity in units of concentration, obtained from inhibition or displacement. A high value points to weaker binding.
